Reference: PMC10053621 (Pharmaceutics, 2023)
Where two headings read alike, the source gives them in different places.

How the values were obtained:
[1] = tested on: Staphylococcus aureus (S. aureus); experiment: Bacterial growth assay (turbidity, OD600); type: cell-based; settings: 100 µg/mL, 1-8 h
Procedure: (§1) The antibacterial effect of FKFL-G2 was evaluated using Escherichia coli (E. coli) DH5α, which is kanamycin-resistant, and Staphylococcus aureus (S. aureus). Bacterial growth was estimated based on turbidity measurements, a commonly used method of evaluating the density of bacteria grown on a solution medium. In this process, E. coli and S. aureus bacteria were thawed, cultured overnight, and subcultured. […] The optical density (OD) of each sample was measured at a wavelength of 600 nm using an ultraviolet–visible spectrophotometer (OPTIZEN QX, Optizen, Daejeon, Republic of Korea).

E. coli [2] = experiment: Biofilm formation assay (crystal violet); type: cell-based, Escherichia coli; settings: 8 h at 37 °C, absorbance at 550 nm, n = 4
Procedure: E. coli cells were thawed, cultured overnight, and then subcultured. […] To prevent subsequent background staining, the culture medium was removed and washed three times with distilled water. Then, 125 μL of crystal violet solution (0.1%, w/v) was added to the cells, which were incubated for another 10 min. Thereafter, the solution was removed, and the cells were washed with water and dried overnight. Lastly, 125 µL of a 30% acetic acid solution was added to the cells, which were incubated for 10 min to dissolve the film. The absorbance of the cells was then measured using a microplate reader (VERSAmax, Molecular Devices, Sunnyvale, CA, USA) at a wavelength of 550 nm.

[3] = tested on: Escherichia coli (E. coli) DH5α, kanamycin-resistant; experiment: Bacterial growth assay (turbidity, OD600); type: cell-based; settings: 100 µg/mL, 1-8 h
Procedure: as §1

E. coli [4] = experiment: Membrane permeabilization assay (NPN); type: cell-based, Escherichia coli; settings: 100 µL of 1 mg/mL in 1 mL, 30 min, HEPES pH 7.8, ex 350 / em 429 nm, n = 3
Procedure: (§2) To evaluate the ability of FKFL-G2 to disrupt bacterial cell membranes, the membrane permeabilization assay was performed using N-phenyl-1-naphthylamine (NPN). E. coli and S. aureus bacteria were thawed and cultured overnight at 37 °C while being shaken at 180 rpm. After the absorbance of the bacterial solutions reached an OD600 of 1.0, the bacterial cells were harvested via centrifugation at 3500 rpm for 10 min. The bacterial pellet was washed twice with 4-(2-hydroxyethyl)-1-piperazineethanesulfonic acid (HEPES) buffer (pH 7.8). The bacterial pellets were then subjected to another round of centrifugation at 3500 rpm for 10 min and resuspended in 1 mL of HEPES (pH 7.8) to make bacterial solutions. […] Triton X-100, a well-known surfactant with a high capacity to destroy cell membranes, was used as a control. The fluorescence of each solution was measured using a fluorometer (LS45 Fluorescence Spectrometer, PerkinElmer, Waltham, MA, USA) at an excitation wavelength of 350 nm and emission wavelength of 429 nm.

S. aureus [5] = experiment: Membrane permeabilization assay (NPN); type: cell-based, Staphylococcus aureus; settings: 100 µL of 1 mg/mL in 1 mL, 30 min, HEPES pH 7.8, ex 350 / em 429 nm, n = 3
Procedure: as §2

S. aureus [6] = experiment: Colony-forming unit assay; type: cell-based, Staphylococcus aureus; settings: 100 µg/mL, 24 h growth on agar plate, n = 3
Procedure: (§3) A colony-forming unit assay was performed to determine the effect of FKFL-G2 on bacterial colony formation. This process followed the same steps as the turbidity test in Section 2.5. The OD of the cells was measured after 24 h of growth. The cell solution was diluted by a factor of 10^7; after which, 100 µL of the diluted solution was sprayed onto an agar plate and incubated in a shaking incubator for 24 h at 37 °C. The number of colonies produced was then observed.

[7] = Critical aggregation concentration (CAC), Nile red fluorescence; type: physicochemical; settings: ex 550 nm, intensity at 650 nm, FKFL-G2 0.001 to 0.9 mg/mL
Procedure: In order to confirm whether FKFL-G2 forms an aggregate by itself, the CAC was measured by fluorescence spectroscopy using Nile red. A 1 mL solution of FKFL-G2 with a concentration range of 0.001 to 0.9 mg/mL was combined with 5 µL of Nile red (1 mM in MeOH) and mixed by vortexing. Subsequently, fluorescence was measured at wavelengths of 550 nm for excitation and 560–760 nm for emission using a fluorometer (LS45, Fluorescence Spectrometer, PerkinElmer), and the fluorescence intensity at 650 nm was analyzed to measure the values of the nanoparticles.

E. coli [8] = experiment: Colony-forming unit assay; type: cell-based, Escherichia coli; settings: 100 µg/mL, 24 h growth on agar plate, n = 3
Procedure: as §3

NIH3T3 cells = tested on: NIH3T3 cells
Procedure: NIH3T3 cells were used to evaluate the cytotoxicity of the FKFL-G2 dendrimer. A total of 1.8 × 10^4 cells/well were seeded in a 96-well plate and incubated in 90 µL of Dulbecco’s modified Eagle’s medium, containing 10% (v/v) fetal bovine serum and 1% (w/v) penicillin/streptomycin, for 16 h at 37 °C in a humidified atmosphere containing 5% CO2. […] Each sample in the experimental group was treated with 10 µL of the FKFL-G2 dendrimer at the following concentrations: 12.5, 25, 50, 100, and 200 µg/mL. After 24 h of incubation, 10 µL of EZ-Cytox reagent (WST-8) was added to each well (except for that used as the negative control), which were incubated for a subsequent 2 h. Lastly, the absorbance of the wells measured a data wavelength of 450 nm via a colorimetric enzyme-linked immunosorbent assay (VERSAmax, Molecular Devices, Sunnyvale, CA, USA).

S. aureus [9] = experiment: Scanning electron microscopy of treated bacteria; type: cell-based, Staphylococcus aureus; settings: 8 h at 37 °C
Procedure: (§4) Bacterial morphology with untreated or Amp, Kan, G2, and FKFL-G2-treated was observed using field emission scanning electron microscopy (FE-SEM; S-4800, Hitachi, Tokyo, Japan). E. coli and S. aureus bacteria were cultured and incubated with experimental and control samples for 8 h at 37 °C while being shaken at 225 rpm. Thereafter, 50 µL of the bacterial solution of each culture was placed on a silicon wafer and dried at room temperature. The bacteria-containing wafers were placed on a 24-well plate and treated with 4% paraformaldehyde for 30 min. The surfaces were then washed using various concentrations of ethanol solution 0%, 25%, 50%, 75%, and 99.9%. The washed wafers were coated with platinum for 90 s; after which, and the appearance of bacteria was observed using FE-SEM (S-4800, Hitachi, Tokyo, Japan). The shapes of treated bacterial cells were compared with those of nontreated corresponding bacterial cells.

[10] = Zeta potential and mean diameter (Zetasizer Nano ZS, DLS); type: physicochemical; settings: for Diameter / Polydispersity (PDI): DLS at RT, repeated three times; for Zeta Potential: room temperature, triplicate
Procedure: The surface charge and the mean diameter of the FKFL-G2 were measured in triplicate and evaluated at various concentrations at room temperature using a Zetasizer Nano ZS (Malvern Panalytical, Malvern, UK).

E. coli [11] = experiment: Scanning electron microscopy of treated bacteria; type: cell-based, Escherichia coli; settings: 8 h at 37 °C
Procedure: as §4

Q: Which “bacterial growth, OD600 over time (in words)” value [1] does the source give for `CC1(C)S[C@@H]2[C@H](NC(=O)[C@H](N)c3ccccc3)C(=O)N2[C@H]1C(=O)O` [Ampicillin] here?
A: remained stable

Q: What about the “biofilm formation inhibition rate” value (E. coli [2]) of the same compound?
A: approximately 98%

Q: Which “bacterial growth, OD600 over time (in words)” value [3] does the source give for `NC[C@H]1O[C@H](O[C@H]2[C@H](O)[C@@H](O[C@H]3O[C@H](CO)[C@@H](O)[C@H](N)[C@H]3O)[C@H](N)C[C@@H]2N)[C@H](O)[C@@H](O)[C@@H]1O` [kanamycin, Kanamycin] here?
A: grew well

Q: And the “bacterial growth, OD600 over time (in words)” value [1]?
A: remained stable

Q: And the “membrane permeabilization, NPN fluorescence (in words)” value (E. coli [4])?
A: did not show any membrane perturbation effect

Q: And the “membrane permeabilization, NPN fluorescence (in words)” value (S. aureus [5])?
A: did not show any membrane perturbation effect

Q: And the “biofilm formation inhibition rate” value (E. coli [2])?
A: 75%

Q: What does the source list for “phenylalanine (F)-lysine (K)-phenylalanine (F)-Leucine (L)-polyamidoamine generation 2 (PAMAM G2) [FKFL-G2]”?
A: bacterial growth, OD600 over time (in words) [1]: decreased over time; colony formation (in words) (S. aureus [6]): strong antibacterial effect; membrane permeabilization, NPN fluorescence (in words) (E. coli [4]): higher fluorescence than PAMAM G2; membrane permeabilization, NPN fluorescence (in words) (S. aureus [5]): higher fluorescence than PAMAM G2; Critical aggregation concentration (CAC) [7]: 31.03 µM; biofilm formation inhibition rate (E. coli [2]): approximately 98%; colony formation (in words) (E. coli [8]): strong antibacterial effect; cell viability (NIH3T3 cells; 8.46 µM): about 83%; cell viability (NIH3T3 cells; 16.9 µM): ~48%; cell density in FE-SEM images (in words) (S. aureus [9]): lowest; Diameter ([10]; concentration 42.3 µM): 158.33 ± 12.59; Polydispersity (PDI) ([10]; concentration 42.3 µM): 0.628 ± 0.14; Zeta Potential ([10]; concentration 42.3 µM): 29.63 ± 6.51; Diameter ([10]; concentration 84.6 µM): 109.83 ± 17.54; Polydispersity (PDI) ([10]; concentration 84.6 µM): 0.459 ± 0.18; Zeta Potential ([10]; concentration 84.6 µM): 35.5 ± 6.0; Diameter ([10]; concentration 169.2 µM): 98.45 ± 6.95; Polydispersity (PDI) ([10]; concentration 169.2 µM): 0.475 ± 0.03; Zeta Potential ([10]; concentration 169.2 µM): 38.23 ± 5.74; cell density in FE-SEM images (in words) (E. coli [11]): lowest
